Experimental data published in PubChem BioAssay (NCI).
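Assay format: 96-well plates, 48-hour exposure. GI50 is the concentration that inhibits growth by half. Definition used: TGI = concentration required for complete inhibition of growth.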

Key:
Experiment in all cases: NCI tumour cell line growth inhibition, 48 h
786-0 renal = tested on: 786-0 renal
BT-549 breast = tested on: BT-549 breast
MDA-MB-435 = tested on: MDA-MB-435
SR leukemia = tested on: SR leukemia
HOP-18 NSCLC = tested on: HOP-18 NSCLC
LXFL 529 NSCLC = tested on: LXFL 529 NSCLC
DLD-1 colon = tested on: DLD-1 colon
P388 leukemia = tested on: P388 leukemia
P388/ADR leukemia = tested on: P388/ADR leukemia
SN12K1 renal = tested on: SN12K1 renal
RXF-631 renal = tested on: RXF-631 renal

Question: CCc1nc(N)nc(N)c1-c1ccc(Cl)c(Cl)c1 was tested. Which TGI (786-0 renal) did it give?
Answer: The TGI was over 100 µM.

Question: What about the TGI (BT-549 breast) of the same compound?
Answer: Its TGI is over 100 µM.

Question: And the TGI (MDA-MB-435)?
Answer: The TGI was over 100 µM.

Question: And the TGI (SR leukemia)?
Answer: Its TGI is over 100 µM.

Question: Which TGI (HOP-18 NSCLC) does the source give for COc1ccccc1C1C(C(=O)O)=C(CO)Oc2cc3c(cc21)OCO3 (stereo unspecified) here?
Answer: The TGI was over 100 µM.

Question: And the TGI (LXFL 529 NSCLC)?
Answer: The TGI was over 100 µM.

Question: With Cc1ccc(S(=O)(=O)Oc2cc(-c3ccccc3)nc3ccccc23)cc1 as the compound, how does the TGI (DLD-1 colon) read?
Answer: Its TGI is over 46.8 µM.

Question: What about the TGI (HOP-18 NSCLC) of the same compound?
Answer: Its TGI is 45.8 µM.

Question: What about the TGI (P388 leukemia) of the same compound?
Answer: The TGI was 3.12 µM.

Question: And the TGI (P388/ADR leukemia)?
Answer: Its TGI is 12.6 µM.

Question: And the TGI (SN12K1 renal)?
Answer: The TGI was 4.25 µM.

Question: Which results are given for NC(Cc1cccc([N+](=O)[O-])c1)C(=O)O (stereo unspecified)?
Answer: TGI (786-0 renal): > 100 µM; TGI (BT-549 breast): > 100 µM; TGI (MDA-MB-435): > 100 µM

Question: O=[N+]([O-])c1ccc(C=C2C(Cl)=C(Cl)C(Cl)=C2Cl)cc1 was tested. Which GI50 (BT-549 breast) did it give?
Answer: The GI50 was 4.75 µM.

Question: And the TGI (BT-549 breast)?
Answer: The TGI was over 100 µM.

Question: And the GI50 (SR leukemia)?
Answer: The GI50 was 2.04 µM.

Question: And the TGI (SR leukemia)?
Answer: Its TGI is 7.75 µM.

Question: Which TGI (DLD-1 colon) does the source give for CC1CC=CC(O)C1 (stereo unspecified) here?
Answer: The TGI was over 100 µM.

Question: And the TGI (HOP-18 NSCLC)?
Answer: The TGI was over 100 µM.

Question: What about the TGI (P388 leukemia) of the same compound?
Answer: The TGI was over 100 µM.

Question: And the TGI (P388/ADR leukemia)?
Answer: The TGI was over 100 µM.

Question: What about the TGI (SN12K1 renal) of the same compound?
Answer: The TGI was over 100 µM.

Question: For Cc1ccc2c(n1)C(=O)c1[nH]c3ccccc3c1C2=O, which GI50 (MDA-MB-435) is on record?
Answer: Its GI50 is 1.59 µM.

Question: And the TGI (MDA-MB-435)?
Answer: Its TGI is 2.94 µM.

Question: NCCCNc1nc2ccccc2c2c(=O)c3cc(OC(F)(F)F)ccc3sc12 was tested. Which GI50 (BT-549 breast) did it give?
Answer: Its GI50 is 10.7 µM.

Question: And the TGI (BT-549 breast)?
Answer: Its TGI is 32.6 µM.

Question: And the GI50 (MDA-MB-435)?
Answer: Its GI50 is 1.59 µM.

Question: And the TGI (MDA-MB-435)?
Answer: Its TGI is 2.96 µM.

Question: What does the source list for CCC[CH2][Ge]([CH2]CCC)([CH2]CCC)[O]C(=O)CC(=O)c1ccccc1?
Answer: GI50 (DLD-1 colon): 0.77 µM; TGI (DLD-1 colon): 16 µM; GI50 (HOP-18 NSCLC): 10.8 µM; TGI (HOP-18 NSCLC): 22.7 µM; GI50 (LXFL 529 NSCLC): 0.325 µM; TGI (LXFL 529 NSCLC): 13.7 µM; GI50 (SR leukemia): 0.707 µM; TGI (SR leukemia): 33.6 µM

Question: Which TGI (786-0 renal) does the source give for C[C@]12C=CC(=O)C=C1CC[C@H]1[C@@H]3C[C@@H](O)[C@](O)(C(=O)CO)[C@@]3(C)C[C@H](O)[C@@]12F here?
Answer: Its TGI is over 100 µM.

Question: And the TGI (DLD-1 colon)?
Answer: Its TGI is over 100 µM.

Question: What about the TGI (LXFL 529 NSCLC) of the same compound?
Answer: The TGI was over 100 µM.

Question: And the TGI (RXF-631 renal)?
Answer: Its TGI is over 100 µM.

Question: And the TGI (SR leukemia)?
Answer: Its TGI is over 100 µM.

Question: Which TGI (786-0 renal) does the source give for NC(N)=NCCN=C(N)N here?
Answer: The TGI was over 100 µM.

Question: What about the TGI (BT-549 breast) of the same compound?
Answer: Its TGI is over 100 µM.

Question: What about the TGI (MDA-MB-435) of the same compound?
Answer: The TGI was over 100 µM.

Question: With NC(CCCCP(=O)(O)O)C(=O)O (stereo unspecified) as the compound, how does the TGI (BT-549 breast) read?
Answer: The TGI was over 100 µM.

Question: What about the TGI (MDA-MB-435) of the same compound?
Answer: Its TGI is over 100 µM.

Question: And the TGI (SR leukemia)?
Answer: The TGI was over 100 µM.

Question: With Cc1nc(N)sc1-c1ccnc(Nc2ccc(N3CCOCC3)cc2)n1 as the compound, how does the GI50 (BT-549 breast) read?
Answer: The GI50 was 1.56 µM.

Question: What about the TGI (BT-549 breast) of the same compound?
Answer: Its TGI is over 100 µM.

Question: What about the GI50 (MDA-MB-435) of the same compound?
Answer: Its GI50 is 1.86 µM.

Question: What about the TGI (MDA-MB-435) of the same compound?
Answer: Its TGI is 36.7 µM.

Question: What about the GI50 (SR leukemia) of the same compound?
Answer: Its GI50 is 0.346 µM.

Question: And the TGI (SR leukemia)?
Answer: The TGI was 5.39 µM.

Question: What does the source list for C=CC(Br)(CBr)CCC(Cl)C(C)C (stereo unspecified)?
Answer: TGI (BT-549 breast): 2.96 µM; TGI (MDA-MB-435): 3.5 µM; TGI (SR leukemia): 2.38 µM

Question: With CC(=O)Oc1cccc2c(/C=N/NC(N)=S)ncc(C)c12 as the compound, how does the TGI (BT-549 breast) read?
Answer: The TGI was 12.3 µM.

Question: What about the TGI (MDA-MB-435) of the same compound?
Answer: Its TGI is over 45.9 µM.

Question: And the TGI (SR leukemia)?
Answer: Its TGI is over 65.9 µM.

Question: For COc1ccc(C2CC(c3cccc(Nc4ccncc4)c3)=NN2c2cc(Cl)cc(Cl)c2)cc1 (stereo unspecified), which GI50 (BT-549 breast) is on record?
Answer: The GI50 was 5.57 µM.

Question: What about the TGI (BT-549 breast) of the same compound?
Answer: Its TGI is 24.8 µM.

Question: And the GI50 (MDA-MB-435)?
Answer: Its GI50 is 1.75 µM.

Question: And the TGI (MDA-MB-435)?
Answer: Its TGI is 3.32 µM.

Question: What about the GI50 (SR leukemia) of the same compound?
Answer: Its GI50 is 1.53 µM.

Question: And the TGI (SR leukemia)?
Answer: Its TGI is 4.34 µM.

Question: For O=NN(CCCl)C(=O)NC1CCSc2ccccc21 (stereo unspecified), which TGI (DLD-1 colon) is on record?
Answer: Its TGI is over 100 µM.

Question: And the TGI (HOP-18 NSCLC)?
Answer: Its TGI is over 100 µM.

Question: And the TGI (P388 leukemia)?
Answer: The TGI was 82.6 µM.

Question: What about the TGI (P388/ADR leukemia) of the same compound?
Answer: Its TGI is over 100 µM.

Question: What about the TGI (SN12K1 renal) of the same compound?
Answer: The TGI was over 100 µM.

Question: Which results are given for COc1cc(C[S+]2CCCC2)c(SC)cc1C[S+]1CCCC1?
Answer: TGI (786-0 renal): > 100 µM; TGI (DLD-1 colon): > 100 µM; TGI (LXFL 529 NSCLC): > 100 µM; TGI (RXF-631 renal): > 100 µM

Question: Which results are given for CC(=O)OC1CCC2(C)C3CCC4(C)C(c5ccc(=O)oc5)CC5OC54C3CCC2(O)C1 (stereo unspecified)?
Answer: TGI (DLD-1 colon): 1.57 µM; TGI (HOP-18 NSCLC): 7.38 µM; TGI (P388 leukemia): > 200 µM; TGI (P388/ADR leukemia): > 200 µM; TGI (SN12K1 renal): 3.7 µM

Question: With c1ccc(N=C2SC(=NC3CCCCC3)N(C3CCCCC3)C2=Nc2ccccc2)cc1 as the compound, how does the TGI (BT-549 breast) read?
Answer: Its TGI is over 100 µM.

Question: And the TGI (MDA-MB-435)?
Answer: Its TGI is over 100 µM.

Question: What about the TGI (SR leukemia) of the same compound?
Answer: The TGI was over 100 µM.

Question: What does the source list for O=C(OC(=O)n1ccc2ccccc21)n1ccc2ccccc21?
Answer: TGI (DLD-1 colon): > 100 µM; TGI (HOP-18 NSCLC): > 100 µM; TGI (SN12K1 renal): > 100 µM
